Values of other authors in patent US6469171B1, “Syntheses of a variety of lamellarin compounds and analogues” (The Australian National University, priority 1998, dated 2002).

Assays:
P388 cell line = P388 cell line in culture
A549 cell line = A549 cell line in culture
fertilised sea urchin = fertilised sea urchin assay
lung cancer cell lines = settings: by acting as a Type IV microtubule poison

| Molecule | cytotoxicity (P388 cell line) | cytotoxicity (A549 cell line) | inhibition of cell division (fertilised sea urchin) | activity in lung cancer cell lines (lung cancer cell lines) |
| --- | --- | --- | --- | --- |
| COc1ccc(-c2c3n(c4c(=O)oc5cc(O)c(OC)cc5c24)CCc2cc(O)c(OC)cc2-3)cc1O [Lamellarin L] | significant cytoxicity | significant cytoxicity |  |  |
| COc1cc(-c2c3n(c4c(=O)oc5cc(O)c(OC)cc5c24)CCc2c-3cc(OC)c(OC)c2OC)ccc1O [Lamellarin C] |  |  | inhibition of cell division |  |
| COc1cc(-c2c3c4cc(OC)c(O)cc4oc(=O)c3n3ccc4cc(O)c(OC)cc4c23)ccc1O [Lamellarin D] |  |  | inhibition of cell division |  |
| Lamellarin I | significant cytoxicity | significant cytoxicity |  |  |
| COc1ccc(-c2c3c4cc(OC)c(O)cc4oc(=O)c3n3ccc4cc(O)c(OC)cc4c23)cc1O [Lamellarin N] |  |  |  | activity |
| Lamellarin K | significant cytoxicity | significant cytoxicity |  |  |
